Test results reported in ChEMBL document CHEMBL1135430, “Synthesis of 3,4-dihydro-2H-1,2,4-benzo-thiadiazine 1,1-dioxide derivatives as potential allosteric modulators of AMPA/kainate receptors” (2002).

Species: Rattus norvegicus
Experiment: Variation of kainate-activated (KA) currents in primary cultures of cerebellar granule neurons at 1 mM using patch-clamp technique
Type: functional
Work on `O=S1(=O)NC(c2ccccc2)Nc2ccccc21` (stereo unspecified) yielded a Variation of -34%.
With `CN(C)c1ccc(C2Nc3ccccc3S(=O)(=O)N2)cc1` (stereo unspecified) the Variation was -1%.
`O=S1(=O)NC(c2ccc(O)cc2)Nc2ccccc21` (stereo unspecified) showed a Variation of -60%.
For `CC1Nc2ccc(Cl)cc2S(=O)(=O)N1` (stereo unspecified), the Variation was 115%.
`O=S1(=O)NC(c2ccc(O)cc2)Nc2ccc(Cl)cc21` (stereo unspecified) gave a Variation of -51%.
With `O=S1(=O)NC(C(F)(F)F)Nc2ccccc21` (stereo unspecified) the Variation was 70%.
With `O=S1(=O)NC(CCl)Nc2ccccc21` (stereo unspecified) the Variation was -22%.
For `NS(=O)(=O)c1cc2c(cc1Cl)NC(C1CC3C=CC1C3)NS2(=O)=O` (stereo unspecified) [CYCLOTHIAZIDE], the Variation was 111%.
With `O=S1(=O)NC(CCl)Nc2ccc(Cl)cc21` (stereo unspecified) the Variation was -26%.
For `O=S1(=O)NC(C(F)(F)F)Nc2ccc(Cl)cc21` (stereo unspecified), the Variation was 72%.
Compound `CN(C)c1ccc(C2Nc3ccc(Cl)cc3S(=O)(=O)N2)cc1` (stereo unspecified) has a Variation of -1%.
